Assay results: ChEMBL document CHEMBL1221311, “The synthesis and structure-activity relationship of 4-benzimidazolyl-piperidinylcarbonyl-piperidine analogs as histamine H3 antagonists” (Bioorg Med Chem Lett, 2010)
pIC50, pKi: −log10 of the molar value.

Tests used:
Histamine H3 receptor = Histamine H3 receptor (Cavia porcellus, UniProt Q9JI35); test: Displacement of [3H]Nalpha-methylhistamine from histamine H3 receptor in guinea pig brain
Cytochrome P450 3A4 = Cytochrome P450 3A4 (Homo sapiens, UniProt P08684); test: Inhibition of CYP3A4 in human liver microsomes; type: ADME, Microsome
Cytochrome P450 2D6 = Cytochrome P450 2D6 (Homo sapiens, UniProt P10635); test: Inhibition of CYP2D6 in human liver microsomes; type: ADME, Microsome
Cavia porcellus = test: Antihypertensive activity in po dosed guinea pig assessed as inhibition of (R)-alpha-methylhistamine-induced hypertension; type: functional
Cytochrome P450 2C9 = Cytochrome P450 2C9 (Homo sapiens, UniProt P11712); test: Inhibition of CYP2C9 in human liver microsomes; type: ADME, Microsome
[1] = AUC in rat at 10 mg/kg, po; type: ADME, organism-based; parameters: dose 10 mg/kg, route oral; conditions: plasma
hERG (KCNH2) = hERG (KCNH2) (Homo sapiens, UniProt Q12809); test: Inhibition of human ERG at 10 uM
[2] = Clearance in rat hepatocytes assessed per million cells; type: ADME, cell-based, Liver, Hepatocyte
[3] = Clearance in human hepatocytes assessed per million cells; type: ADME, cell-based, Liver, Hepatocyte
[4] = target: Histamine H3 receptor (Cavia porcellus) (UniProt Q9JI35); test: Displacement of [3H]Nalpha-methylhistamine from histamine H3 receptor in guinea pig brain at 1 uM
Sequence of Histamine H3 receptor (Cavia porcellus) (Q9JI35 whole entry): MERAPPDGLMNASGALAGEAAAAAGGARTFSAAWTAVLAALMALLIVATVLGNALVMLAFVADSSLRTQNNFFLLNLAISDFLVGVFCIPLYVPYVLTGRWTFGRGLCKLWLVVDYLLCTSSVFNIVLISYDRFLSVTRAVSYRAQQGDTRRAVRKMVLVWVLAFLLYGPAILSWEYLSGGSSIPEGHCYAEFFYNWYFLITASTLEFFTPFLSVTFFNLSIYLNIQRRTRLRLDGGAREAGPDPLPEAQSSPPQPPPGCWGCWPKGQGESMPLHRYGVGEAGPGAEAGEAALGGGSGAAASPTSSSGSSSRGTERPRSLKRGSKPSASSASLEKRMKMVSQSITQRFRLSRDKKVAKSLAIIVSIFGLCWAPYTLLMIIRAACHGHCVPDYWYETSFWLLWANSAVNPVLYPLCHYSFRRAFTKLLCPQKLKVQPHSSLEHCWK

Sequence of Cytochrome P450 2D6 (P10635 whole entry): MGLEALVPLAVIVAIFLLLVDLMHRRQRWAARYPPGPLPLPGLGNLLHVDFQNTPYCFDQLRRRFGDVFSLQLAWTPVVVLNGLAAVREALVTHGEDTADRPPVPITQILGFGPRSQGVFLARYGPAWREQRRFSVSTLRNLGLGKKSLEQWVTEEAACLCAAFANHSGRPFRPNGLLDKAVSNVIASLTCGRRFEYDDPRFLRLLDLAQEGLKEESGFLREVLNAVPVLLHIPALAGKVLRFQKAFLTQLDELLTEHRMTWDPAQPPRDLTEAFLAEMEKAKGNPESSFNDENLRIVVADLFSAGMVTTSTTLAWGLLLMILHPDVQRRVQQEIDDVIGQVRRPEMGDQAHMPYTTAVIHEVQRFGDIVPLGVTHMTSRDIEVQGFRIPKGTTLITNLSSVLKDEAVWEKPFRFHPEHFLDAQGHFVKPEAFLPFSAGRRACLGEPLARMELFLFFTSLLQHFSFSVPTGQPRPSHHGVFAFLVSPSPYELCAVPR
Sequence of Cytochrome P450 2C9 (P11712 whole entry): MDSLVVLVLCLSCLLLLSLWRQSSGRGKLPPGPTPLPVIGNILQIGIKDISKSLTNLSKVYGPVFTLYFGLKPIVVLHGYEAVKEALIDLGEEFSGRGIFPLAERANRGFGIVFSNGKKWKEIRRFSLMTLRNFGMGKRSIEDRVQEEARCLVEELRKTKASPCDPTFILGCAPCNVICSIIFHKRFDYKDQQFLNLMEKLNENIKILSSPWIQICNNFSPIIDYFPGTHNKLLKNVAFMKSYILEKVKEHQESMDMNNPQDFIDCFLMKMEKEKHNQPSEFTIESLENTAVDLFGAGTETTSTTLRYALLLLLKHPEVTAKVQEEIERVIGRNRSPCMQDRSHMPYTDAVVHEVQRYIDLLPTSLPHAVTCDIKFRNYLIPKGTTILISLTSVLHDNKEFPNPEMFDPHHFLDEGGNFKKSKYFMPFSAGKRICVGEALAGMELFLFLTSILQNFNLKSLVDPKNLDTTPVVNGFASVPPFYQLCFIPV
Sequence of Histamine H3 receptor (Q9JI35 whole entry): as the sequence (Q9JI35 whole entry) above
Sequence of Cytochrome P450 3A4 (P08684 whole entry): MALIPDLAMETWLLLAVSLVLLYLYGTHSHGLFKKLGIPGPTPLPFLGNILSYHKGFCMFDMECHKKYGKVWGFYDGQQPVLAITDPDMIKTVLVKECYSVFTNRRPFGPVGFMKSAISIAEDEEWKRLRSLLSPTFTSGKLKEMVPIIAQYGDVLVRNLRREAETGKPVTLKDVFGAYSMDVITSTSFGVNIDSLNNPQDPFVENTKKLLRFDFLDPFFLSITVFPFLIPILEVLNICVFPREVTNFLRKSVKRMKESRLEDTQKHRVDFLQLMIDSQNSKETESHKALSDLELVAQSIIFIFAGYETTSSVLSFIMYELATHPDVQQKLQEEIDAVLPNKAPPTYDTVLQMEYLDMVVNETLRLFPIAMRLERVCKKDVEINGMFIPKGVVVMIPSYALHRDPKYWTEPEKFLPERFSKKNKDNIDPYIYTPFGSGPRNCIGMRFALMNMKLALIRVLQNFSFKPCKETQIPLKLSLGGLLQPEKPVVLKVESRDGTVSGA
Sequence of hERG (KCNH2) (Q12809 whole entry): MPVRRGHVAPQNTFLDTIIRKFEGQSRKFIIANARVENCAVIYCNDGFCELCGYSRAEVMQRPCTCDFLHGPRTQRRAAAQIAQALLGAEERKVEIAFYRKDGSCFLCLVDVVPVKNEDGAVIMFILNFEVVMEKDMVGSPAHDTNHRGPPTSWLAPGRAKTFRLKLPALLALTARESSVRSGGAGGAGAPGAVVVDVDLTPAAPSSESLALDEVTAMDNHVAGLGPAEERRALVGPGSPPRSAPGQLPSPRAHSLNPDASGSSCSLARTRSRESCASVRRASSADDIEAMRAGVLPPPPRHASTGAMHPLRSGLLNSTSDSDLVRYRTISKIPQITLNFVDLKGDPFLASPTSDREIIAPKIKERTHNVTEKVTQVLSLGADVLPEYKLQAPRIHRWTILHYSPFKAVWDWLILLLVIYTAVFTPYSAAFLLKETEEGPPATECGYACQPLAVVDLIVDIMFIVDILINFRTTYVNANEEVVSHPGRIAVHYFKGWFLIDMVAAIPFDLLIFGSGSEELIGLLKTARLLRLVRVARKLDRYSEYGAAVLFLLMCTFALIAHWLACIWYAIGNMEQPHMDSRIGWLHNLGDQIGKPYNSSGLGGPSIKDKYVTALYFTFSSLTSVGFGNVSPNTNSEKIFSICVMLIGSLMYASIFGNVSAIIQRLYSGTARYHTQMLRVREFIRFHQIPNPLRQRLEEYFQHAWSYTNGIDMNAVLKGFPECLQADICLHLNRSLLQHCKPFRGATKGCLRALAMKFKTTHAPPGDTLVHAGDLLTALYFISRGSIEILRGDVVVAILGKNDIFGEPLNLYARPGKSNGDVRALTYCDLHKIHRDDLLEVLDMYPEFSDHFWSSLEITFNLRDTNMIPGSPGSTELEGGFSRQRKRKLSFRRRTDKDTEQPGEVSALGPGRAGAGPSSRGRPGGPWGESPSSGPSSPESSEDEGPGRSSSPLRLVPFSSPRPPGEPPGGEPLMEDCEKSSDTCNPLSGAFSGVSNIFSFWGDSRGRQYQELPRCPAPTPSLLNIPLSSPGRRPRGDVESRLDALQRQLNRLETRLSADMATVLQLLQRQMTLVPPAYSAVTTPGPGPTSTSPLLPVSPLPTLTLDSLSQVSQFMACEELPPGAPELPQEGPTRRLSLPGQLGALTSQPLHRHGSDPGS

| SMILES | pKi (Histamine H3 receptor) | pIC50 (Cytochrome P450 3A4) | pIC50 (Cytochrome P450 2D6) | further results |
| --- | --- | --- | --- | --- |
| O=C(C1CCN(Cc2cccnc2)CC1)N1CCC(n2c(=O)[nH]c3ccccc32)CC1 | 6.76 | – | – | – |
| O=C(C1CCN(Cc2ccncc2)CC1)N1CCC(n2c(=O)n(Cc3ccccc3)c3ccccc32)CC1 | 9.70 | 6.40 | 5.04 | – |
| O=C(C1CCN(Cc2ccncc2)CC1)N1CCC(n2c(=O)[nH]c3ccccc32)CC1 | 8.70 | 5.02 | < 4.70 | ED50 (Cavia porcellus): < 0.3 mg/kg; pIC50 (Cytochrome P450 2C9): < 4.70; AUC [1]: 0.24 µM·h; inhibition at 10 µM (hERG (KCNH2)): < 10%; hepatocyte CLint [2]: < 10 µL/min/1e6 cells; hepatocyte CLint [3]: < 10 µL/min/1e6 cells |
| O=C(C1CCN(Cc2ccsc2)CC1)N1CCC(n2c(=O)[nH]c3ccccc32)CC1 | 6.98 | – | – | – |
| O=C(C1CCN(Cc2ccccn2)CC1)N1CCC(n2c(=O)[nH]c3ccccc32)CC1 | – | – | – | inhibition [4]: 40% |
| O=C(C1CCN(Cc2ccncc2)CC1)N1CCN(Cc2ccccc2)CC1 | 7.55 | – | – | – |
| CC(C)OCCn1c(=O)n(C2CCN(C(=O)C3CCN(Cc4ccncc4)CC3)CC2)c2ccccc21 | 9.19 | 5.22 | < 4.70 | – |
| O=C(C1CCN(Cc2ccncc2)CC1)N1CCC(n2c(=O)n(CCN3CCCCC3)c3ccccc32)CC1 | 9.82 | 4.52 | 5.43 | ED50 (Cavia porcellus): < 0.3 mg/kg; pIC50 (Cytochrome P450 2C9): < 4.70; AUC [1]: 0.24 µM·h; inhibition at 10 µM (hERG (KCNH2)): < 10%; hepatocyte CLint [2]: < 10 µL/min/1e6 cells; hepatocyte CLint [3]: < 10 µL/min/1e6 cells |
| O=C(C1CCN(Cc2cc[n+]([O-])cc2)CC1)N1CCC(n2c(=O)[nH]c3ccccc32)CC1 | 6.36 | – | – | – |
| O=C(C1CCN(Cc2ccncc2)CC1)N1CCC(O)(Cc2ccccc2)CC1 | 7.52 | – | – | – |
| Cn1cc(CN2CCC(C(=O)N3CCC(n4c(=O)[nH]c5ccccc54)CC3)CC2)c2ccccc21 | – | – | – | inhibition [4]: 30% |
| O=c1[nH]c2ccccc2n1C1CCN(CC2CCN(Cc3ccncc3)CC2)CC1 | 7.62 | – | – | – |
| COCCCNC(=O)c1cccc(CN2CCN(C(=O)C3CCN(Cc4ccncc4)CC3)CC2)c1 | 6.68 | – | – | – |
| CN(C)CCCn1c(=O)n(C2CCN(C(=O)C3CCN(Cc4ccncc4)CC3)CC2)c2ccccc21 | – | < 4.52 | 5.80 | pIC50 (Cytochrome P450 2C9): < 4.70 |
| COCCn1c(=O)n(C2CCN(C(=O)C3CCN(Cc4ccncc4)CC3)CC2)c2ccccc21 | 8.70 | 4.96 | < 4.70 | – |
| O=C(C1CCN(Cc2ccoc2)CC1)N1CCC(n2c(=O)[nH]c3ccccc32)CC1 | 6.69 | – | – | – |
| O=C(C1CCN(Cc2ccncc2)CC1)N1CCN(Cc2cccc(Cl)c2)CC1 | 8.20 | – | – | – |
| O=C(C1CCN(Cc2ccncc2)CC1)N1CCC(n2c(=O)n(Cc3ccc(Cl)cc3)c3ccccc32)CC1 | 9.05 | 6.40 | 5.24 | – |
| CN1CCN(C(=O)C2CCN(Cc3ccncc3)CC2)CC1 | 6.45 | – | – | – |
| O=C(CC1CCN(Cc2ccncc2)CC1)N1CCC(n2c(=O)[nH]c3ccccc32)CC1 | 6.74 | – | – | – |
| O=C(C1CCN(Cc2ccncc2)CC1)N1CCC(n2c(=O)n(Cc3cccc(Cl)c3)c3ccccc32)CC1 | 8.70 | 6.52 | 5.38 | – |
| CN(C)CCn1c(=O)n(C2CCN(C(=O)C3CCN(Cc4ccncc4)CC3)CC2)c2ccccc21 | 9.70 | < 4.52 | 4.98 | ED50 (Cavia porcellus): < 0.3 mg/kg; pIC50 (Cytochrome P450 2C9): < 4.70; AUC [1]: 0.24 µM·h; inhibition at 10 µM (hERG (KCNH2)): < 10%; hepatocyte CLint [2]: < 10 µL/min/1e6 cells; hepatocyte CLint [3]: < 10 µL/min/1e6 cells |
| Cn1c(=O)n(C2CCN(C(=O)C3CCN(Cc4ccncc4)CC3)CC2)c2ccccc21 | 8.37 | 5.12 | < 4.70 | – |

| SMILES | pKi (Histamine H3 receptor) | pIC50 (Cytochrome P450 3A4) | pIC50 (Cytochrome P450 2D6) | further results |
| --- | --- | --- | --- | --- |
| O=C(C1CCN(Cc2ccncc2)CC1)N1CCC(n2c(=O)n(CCO)c3ccccc32)CC1 | 9.02 | < 4.52 | < 4.70 | – |
| CCOCCCn1c(=O)n(C2CCN(C(=O)C3CCN(Cc4ccncc4)CC3)CC2)c2ccccc21 | 9.10 | 4.97 | < 4.70 | – |
| Cn1ccc(CN2CCC(C(=O)N3CCC(n4c(=O)[nH]c5ccccc54)CC3)CC2)c1 | – | – | – | inhibition [4]: 42% |
| O=C(c1ccncc1)N1CCC(C(=O)N2CCC(n3c(=O)[nH]c4ccccc43)CC2)CC1 | – | – | – | inhibition [4]: 11% |
| O=C(C1CCN(Cc2ccncc2)CC1)N1CCN(C2CCCCC2)CC1 | 7.85 | – | – | – |
| COc1cccc(Cn2c(=O)n(C3CCN(C(=O)C4CCN(Cc5ccncc5)CC4)CC3)c3ccccc32)c1 | 9.52 | 6.70 | 5.25 | – |
| O=C(c1ccccc1)C1CCN(C(=O)C2CCN(Cc3ccncc3)CC2)CC1 | 7.77 | – | – | – |
| O=C(C1CCN(Cc2ccncc2)CC1)N1CCN(c2ccccc2)CC1 | 7.40 | – | – | – |
| CCOCCn1c(=O)n(C2CCN(C(=O)C3CCN(Cc4ccncc4)CC3)CC2)c2ccccc21 | 8.77 | 4.87 | < 4.70 | – |
| O=C(C1CCN(Cc2ccncc2)CC1)N1CCC(n2c(=O)n(CCN3CCOCC3)c3ccccc32)CC1 | 9.30 | 4.52 | < 4.70 | ED50 (Cavia porcellus): < 0.3 mg/kg; pIC50 (Cytochrome P450 2C9): < 4.70; AUC [1]: 0.24 µM·h; inhibition at 10 µM (hERG (KCNH2)): < 10%; hepatocyte CLint [2]: < 10 µL/min/1e6 cells; hepatocyte CLint [3]: < 10 µL/min/1e6 cells |
| O=C(C1CCN(Cc2ccncc2)CC1)N1CCC(n2c(=O)n(Cc3ccccc3Cl)c3ccccc32)CC1 | 8.35 | 6.30 | 5.17 | – |
| O=C(C1CCN(Cc2ccncc2)CC1)N1CCC(Cc2ccccc2)CC1 | 8.26 | – | – | – |
| O=C(NCCc1ccccc1)c1cccc(CN2CCN(C(=O)C3CCN(Cc4ccncc4)CC3)CC2)c1 | 7.57 | – | – | – |
| CC(C)Cn1c(=O)n(C2CCN(C(=O)C3CCN(Cc4ccncc4)CC3)CC2)c2ccccc21 | 9.40 | 5.82 | 5.72 | – |
| O=C(C1CCN(Cc2ccncc2)CC1)N1CCC2(CC1)C(=O)NCN2c1ccccc1 | 7.70 | – | – | – |
| O=C(N1CCC(n2c(=O)[nH]c3ccccc32)CC1)N1CCN(Cc2ccncc2)CC1 | 7.77 | – | – | – |
| O=C(C1CCN(Cc2ccnc3ccccc23)CC1)N1CCC(n2c(=O)[nH]c3ccccc32)CC1 | 6.17 | – | – | – |
| COc1ccc(Cn2c(=O)n(C3CCN(C(=O)C4CCN(Cc5ccncc5)CC4)CC3)c3ccccc32)cc1 | 9.60 | 6.40 | 4.70 | – |
| O=C(C1CCN(Cc2ccncc2Cl)CC1)N1CCC(n2c(=O)[nH]c3ccccc32)CC1 | 6.65 | – | – | – |
| CC(c1ccncc1)N1CCC(C(=O)N2CCC(n3c(=O)[nH]c4ccccc43)CC2)CC1 (configuration not stated) | 7.70 | – | – | – |
| O=C(C1CCN(Cc2ccncc2)CC1)N1CCC(n2c(=O)n(CCOc3ccccc3)c3ccccc32)CC1 | 8.70 | 5.05 | 4.70 | – |
| O=C(C1CCN(CCc2ccncc2)CC1)N1CCC(n2c(=O)[nH]c3ccccc32)CC1 | 6.27 | – | – | – |
